Experiments:
[1] = tested on: N87 gastric carcinoma xenografts; experiment: N87 gastric carcinoma xenografts; type: in vivo, nude mice; settings: 150 mm^3 xenografts
Description: (§1) The antitumor efficacy of calicheamicin conjugated to anti-Lewis Y antibodies was evaluated against human carcinoma xenografts established subcutaneously (SC) in nude mice. The evaluated xenografts included carcinomas that had either high or low expression of the Lewis Y antigen and carcinomas from breast, colon, lung, and prostate. Mice bearing solid tumors with an average mass of 150 to 300 mg were randomized to various treatment groups.
(§2) The efficacy in vivo of hu3S193-AcBut-CM was tested on subcutaneous xenografts from gastric (N87, FIG. 3), prostate (LNCaP, FIG. 4) and colon (LOVO, FIGS. 5 and 6) carcinomas. Subcutaneous tumors of N87, LOVO and LNCaP were grown in athymic nude mice (Charles River, Wilmington, Mass.). Female mice of 1.5 to 3 months old were injected with respectively 5×10^6 N87 or 10^7 LOVO cells per mouse. LNCaP cells were injected in male nude mice that were 3 months old. To grow tumors, N87 and LNCaP cells had to be mixed (1:1, vol/vol) with […]® (Collaborative Biomedical Products, Belford, Mass.) prior to injection. Two perpendicular diameters of the tumor were measured at least once a week by means of calipers. The tumor volume was calculated according to the formula of Attia & Weiss: A^2×B×0.4.
Unless indicated otherwise, 3 doses of each conjugate and control were given intraperitoneally with an interval of 4 days (Q4Dx3). […]

[2] = tested on: LS174T colon carcinoma xenografts; experiment: LS174T colon carcinoma xenografts; type: in vivo, nude mice
Description: (§3) The efficacy in vivo of CMD-193 was tested on subcutaneous xenografts from gastric (N87), lung (L2987), cervical/epidermoid (A431/Le^y) and colon (LS174T and LOVO) carcinomas. Unless indicated otherwise, all conjugates and controls were injected intraperitoneally according to Q4DX3 schedule. To monitor for tumor targeting due to the carrier function of immunoglobulin, CMA was used as a negative control. Based on the studies described below, a dosage of 15 mg/kg of CMD-193 (equivalent to a conjugated antibody protein dosage in the range of 562 to 803 mg/m^2) was considered to be the minimum efficacious dose (MED).
Mice bearing LS174T xenografts of 150 mm^3 were treated with a control conjugate (CMA), PBS or CMD. Mice in each group received three doses i.p. The amount of each dose in calicheamicin equivalents is specified in the legends. Conjugates and controls were injected at day 1, 5 and 9. LS174T tumors proliferated so fast that in the control group all the mice had to be killed within a 51-day period because of the large tumor burden (>2.5 cm^3). In the group treated with 4 ug cal.eq. CMD (Q4DX3), 3 out of five mice were killed within 44 days because of a large tumor burden (1/3) or because of necrosis of the tumor (2/3). Of the other two mice one remained tumor-free for 125 days while the other one had developed a small tumor. […] CMD (Q4DX3) or 4 ug cal.eq CMA (Q4DX3). […]

[3] = tested on: MX1 breast carcinoma xenografts; experiment: MX1 breast carcinoma xenografts; type: in vivo, nude mice; settings: MX1, at least 35 days
Description: The effect of CMD-193 on the growth of established xenografts of carcinomas that had low expression of the Lewis Y antigen was also examined in MX1 breast carcinoma. CMA-676 was used as a nonbinding control conjugate. Nude mice explanted with MX1 breast carcinoma were treated with various dosages of CMD-193 (40 to 240 mg/kg) or CMA-676 (a negative control). Tumor growth was recorded for at least 35 days. In contrast, CMA-676 was effective only at the highest dosages (160 mg/kg) tested.

[4] = tested on: L2987 lung carcinoma xenografts; experiment: L2987 lung carcinoma xenografts; type: in vivo, nude mice; settings: 0.375 to 3 μg/dose/mouse, Q4DX3 i.p.
Description: as §3
Mice bearing L2987 xenografts of 100 mm^3 were treated with a control conjugate (CMA), PBS or CMD. Mice in each group received three doses i.p. The amount of each dose in calicheamicin equivalents is specified in the legends. Conjugates and controls were injected at day 1, 5 and 9. […] The error bars represent the standard deviation of the average tumor volume at each time point. The number of mice (expressed as a percentage) with a tumor size smaller than the initial tumor average of each group was plotted as a function of the observation period in FIG. 12. Treatment with CMA (FIG. 12A) or CMD (FIG. 12B) is compared to treatment with vehicle control (PBS).
For the experiment shown in FIG. 13, 10 mice received L2987 xenografts. […]

[5] = tested on: LOVO colon carcinoma xenografts; experiment: LOVO colon carcinoma xenografts; type: in vivo, nude mice; settings: for tumor inhibition of LOVO xenografts: hu3S193-AcBut-CM experiments (FIGS. 5, 6)
Description: as §2
Unless indicated otherwise, 3 doses of each conjugate and control were given intraperitoneally with an interval of 4 days (Q4Dx3). In vivo, hu3S193-AcBut-CM inhibited tumor growth in these three separate models. Hu3S193-AcBut-CM cured mice from gastric carcinoma xenografts (N87) having high expression of Lewis Y antigen (FIG. 3). […] In the LOVO model, the efficacy of hu3S193-AcBut-CM was improved by increasing the amount of the conjugate (FIG. 5).
Mice bearing LOVO xenografts of 100 mm^3 were treated with control conjugates (RITUXAN-AcBut-CM, FIG. 5A), PBS (FIGS. 5A and 5B), hu3S193 (FIG. 5B) or hu3S193-AcBut-CM (FIG. 5B). Except for the group treated with Hu3S193-AcBut-CM at 4 μg/dose, mice in each group received three doses i.p. The amount of each dose in calicheamicin equivalents is specified in the legend. Conjugates and controls were injected at day 1, 5 and 9. The groups were designated as follows: hu3S193-AcBut-CM, received an additional regimen of three doses at day 43, 47 and 51. The number of mice per group (n) is reported in C. Differences in tumor size at day 30 were probed for statistical significance by a 2-tailed Students t-test.
Mice bearing LOVO xenografts of 100 mm^3 were treated with control conjugates: RITUXAN-AcBut-CM and CMA (FIG. 6A), PBS or hu3S193-AcBut-CM (FIG. 6B). Mice in each group received three or four doses i.p. The amount of each dose in calicheamicin equivalents is specified in the legend. Conjugates and controls were injected at day 1, 5 and 9. The group designated: hu3S193-AcBut-CM*, received an additional dose at day 13. The number of mice per group equals n and p-values of a 2-tailed Students t-test were determined.
Mice bearing LOVO xenografts were tested to investigate the potential benefits of regimens different from 4 μg cal.eq./dose/mouse at Q4DX3. Mice bearing LOVO xenografts of approximately 100 mm^3 were treated with PBS, G193 or various regimens of a control conjugate CMA or CMD. The amount of each dose in calicheamicin equivalents is specified in the legends. The LOVO-model was chosen for this type of experiment because of the marginal efficacy seen with 4 μg cal.eq. at Q4DX3.

[6] = tested on: HL-60 promyelocytic leukemia cells; settings: HL-60 leukemia cells
[7] = tested on: human carcinoma xenografts; experiment: Human carcinoma xenografts in nude mice (all models); type: in vivo; settings: doses equivalent to hu3S193-AcBut-CM; earlier experiments, data not shown
Description: as §1, §3

Compound	growth inhibition versus hu3S193-AcBut-CM or CMD at equivalent doses [1]	cures ([2]; 2 ug cal.eq. Q4DX3)	cures ([2]; 4 ug cal.eq. Q4DX3)	lowest dosage with significant growth inhibition [3]	growth of L2987 xenografts [4]	efficacy on LOVO xenografts ([5]; CMD experiment (FIG. 18))	tumor inhibition of LOVO xenografts [5]	major biotransformation pathways (cytosol)	metabolites after incubation (human liver microsomes and cytosol)	biotransformation pathways (microsomes)	metabolites produced [6]	tumor inhibition by free CM [7]	period of statistically significant difference in tumor size from PBS ([5]; 2 μg cal.eq. per mouse Q4Dx3)	period of statistically significant difference in tumor size from PBS ([5]; 4 μg cal.eq. per mouse Q4Dx3)
CMA-676: calicheamicin conjugate of an anti-CD33 antibody, used as control conjugate	inhibited growth significantly less	one out of the five	No cures	160 mg/kg	significant growth inhibitory effect	lack of efficacy	negligible tumor inhibition							
CCN(C(C)=O)[C@H]1CO[C@@H](O[C@H]2[C@H](O[C@H]3C#C/C=C\C#C[C@]4(O)CC(=O)C(NC(=O)OC)=C3/C4=C\CSSC(C)(C)CC(=O)NN)O[C@H](C)[C@@H](NO[C@H]3C[C@H](O)[C@H](SC(=O)c4c(C)c(I)c(O[C@@H]5O[C@@H](C)[C@H](O)[C@@H](OC)[C@H]5O)c(OC)c4OC)[C@@H](C)O3)[C@@H]2O)C[C@@H]1OC [CM, N-acetyl gamma calicheamicin dimethyl hydrazide]								formation of NAc-epsilon calicheamicin and it's derivatives	Many metabolites were found	hydroxylation and demethylation	Several metabolites, including NAc-epsilon calicheamicin and its isomer	never inhibited		
RITUXAN-AcBut-CM: calicheamicin-conjugate of RITUXAN (anti-CD20), control conjugate							negligible tumor inhibition						16 days	16 days

Source: patent US20090105461A1, “Calicheamicin conjugates” (priority 2004, published 2009)
